Tests used:
MOLM13 cells = test: Cell cycle study, propidium iodide staining; assay type: cell-based, human; conditions: MOLM13, 1 μM, 24 h
BRD4-BD1 = BRD4-BD1 (Homo sapiens, UniProt O60885); test: BROMOscan; assay type: binding; conditions: 1 uM, control DMSO
PLK kinases (PLK1–3) = test: KINOMEscan; assay type: binding; conditions: 1 uM, control DMSO

SMILES | cell cycle arrest (MOLM13 cells) | BRD4-BD1 % of control (BRD4-BD1) | PLK kinases % of control (PLK kinases (PLK1–3))
C[C@@H]1C(=O)N(C)c2cnc(Nc3ccc(C(=O)NC4CCN(C)CC4)cc3OC3CCCC3)nc2N1C1CCCC1 [Compound 23, (R)-4-((8-cyclopentyl-5,7-dimethyl-6-oxo-5,6,7,8-tetrahydropteridin-2-yl)amino)-3-(cyclopentyloxy)-N-(1-methylpiperidin-4-yl)benzamide] | cell cycle arrest in the G1/G2 stage of the cell cycle | – | –
COc1cc(C(=O)NC2CCN(C)CC2)ccc1Nc1ncc2c(n1)N(C1CCCC1)[C@H](C)C(=O)N2C [Compound 5, (R)-4-((8-cyclopentyl-5,7-dimethyl-6-oxo-5,6,7,8-tetrahydropteridin-2-yl)amino)-3-methoxy-N-(1-methylpiperidin-4-yl)benzamide] | – | 12 % of control | 0.3–0.5 % of control
CC[C@@H]1C(=O)N(C)c2cnc(Nc3ccc(C(=O)NC4CCN(C)CC4)cc3OC)nc2N1C1CCCC1 [BI-2536, reference compound] | G1/G2 arrest | – | –

— paper PMC6309379 (Journal of medicinal chemistry, 2018)
